Assay results published in patent publication US20220040319A1, “METHODS OF TREATING OCULAR CANCER USING ANTI-MET ANTIBODIES AND BISPECIFIC ANTIGEN BINDING MOLECULES THAT BIND MET” (Regeneron Pharmaceuticals, Inc., priority 2019, published 2022).

Columns and labels:
[1] = system: MET pathway in NCI-H596 cells; assay: MET and ERK phosphorylation in NCI-H596 cells, immunoblot; assay type: cell-based, human; details: fold change relative to control, HGF 50 ng/ml, antibody 10 μg/ml
Description: 250,000 NCI-H596 cells were seeded in a 12 well plate and cultured in RPMI Media supplemented with 10% FBS. […] The cells were subsequently incubated in 5% CO2 at 37° C. After 0, 2, 6 or 18 hours, cell lysates were prepared, protein content was normalized and immunoblot analysis was performed. MET phosphorylation and ERK phosphorylation were quantified with the ImageJ image processing program (T. Collins, BioTechniques 43: S25-S30, 2007). Phosphorylation levels were normalized to the Tubulin loading control and are expressed as fold change relative to control treatment.

NCI-H596 cells = assay: NCI-H596 growth in soft agar, AlamarBlue, two weeks; assay type: cell-based, human; details: antibody 5 μg/ml (combination 2.5 μg/ml each), HGF 100 ng/mL
Description: The effect of a MET×MET bispecific antibody on the growth of human non-small cell lung cancer (NSCLC) cells (NCI-H596) was assessed in vitro. 10,000 NCI-H596 lung adenosquamous carcinoma cells (Nair et al., J. Nat'l. Cancer Inst. 86(5): 378-383, 1994) were seeded in 96 well plates on a layer of 0.66% agar in media supplemented with 1% fetal bovine serum (FBS). The cells were cultured in RPMI 1640 media supplemented with 1% FBS with 0.3% agarose. […] The cells were subsequently incubated with 5% CO2 at 37° C. After two weeks, relative cell growth was determined by measuring the reduction of the indicator dye, ALAMAR BLUE® (Thermo Fischer Scientific, Waltham, Mass.), to its highly fluorescent form in a SPECTRAMAX® M3 plate reader (Molecular Devices, Sunnyvale, Calif.). Increasing fluorescence correlates with cell growth. Table 18 and FIG. 14 depict the relative NCI-H596 cell growth for each antibody treatment normalized to control (no treatment) NCI-H596 cell growth.

**Q.** How did the “Phospho-ERK (mean ± SD)” value ([1]; 2 hours) turn out when “HGF: hepatocyte growth factor, MET agonist ligand [reference compound]” was run?
**A.** 16.7 ± 1.6

**Q.** What about the “Phospho-MET (mean ± SD)” value ([1]; 2 hours) of the same substance?
**A.** 202.3 ± 38.7

**Q.** What about the “Phospho-ERK (mean ± SD)” value ([1]; 6 hours) of the same substance?
**A.** 12.4 ± 3.9

**Q.** What about the “Phospho-MET (mean ± SD)” value ([1]; 6 hours) of the same substance?
**A.** 38.9 ± 4.9

**Q.** And the “Phospho-ERK (mean ± SD)” value ([1]; 18 hours)?
**A.** 12.4 ± 0.9

**Q.** What about the “Phospho-MET (mean ± SD)” value ([1]; 18 hours) of the same substance?
**A.** 59.2 ± 24.4

**Q.** And the “Relative Cell Growth (n = 3)” value (NCI-H596 cells)?
**A.** 7.877
